Measurements from PMC2556223 (Journal of biomolecular screening, 2008).

Columns and labels:
[1] = system: MV-AII-5; experiment: Dose-response CPE assay against AS-136A-adapted MV variant; conditions: read-out: EC50 (MV-AII-5); MV-Alaska variant adapted to grow in presence of RdRp inhibitor AS-136A; highest concentration assessed 37.5 μM
[2] = system: CDV-752; experiment: Dose-response CPE assay, Vero-dogSLAM cells; assay type: cell-based, canine distemper virus; conditions: Vero-dogSLAM cells, highest concentration assessed 37.5 μM; for EC50: read-out: EC50 (CDV-752)
[3] = system: HPIV3; experiment: Dose-response CPE assay, Vero cells; assay type: cell-based, human parainfluenzavirus type 3; conditions: Vero cells, highest concentration assessed 37.5 μM; for EC50: read-out: EC50 (HPIV3)
[4] = system: MV-Ibd; experiment: Dose-response CPE assay against AS-48-resistant MV strain; conditions: strain naturally resistant to MV fusion inhibitor AS-48; highest concentration assessed 37.5 μM
[5] = system: cells; experiment: Quantitative cytotoxicity assay; assay type: cell-based; conditions: for CC50: 24 h, absence of virus, highest concentration assessed 150 μM, averages of two experiments; for SI (CC50/EC50): specificity index, CC50 / EC50 against MV-Alaska
[6] = system: MV-Alaska; experiment: Dose-response curves based on suppression of viral CPE; assay type: cell-based, measles virus; conditions: biotesting of chemically re-synthesized compound; data not shown

| SMILES | EC50 [1] | EC50 [2] | EC50 (HPIV3) [3] | EC50 (MV-Ibd) [4] | EC50 (CDV-752) [2] | CC50 [5] | SI (CC50/EC50) [5] | Activity of re-synthesized compound versus original library substance [6] | EC50 [3] |
| --- | --- | --- | --- | --- | --- | --- | --- | --- | --- |
| COc1cc(/C=C/C(=O)NC(C)C)ccc1OCc1ccccc1 [compound 22415706] | 4.1 µM | 12.9 µM | no activity detected | no activity detected | – | – | – | – | – |
| C=CCn1c(SCC(=O)N2CC(=O)Nc3ccccc32)nc2scc(-c3ccccc3)c2c1=O [compound 14743644] | 4.6 ± 0.1 µM | – | no activity detected | – | no activity detected | ~150 µM | 56 | – | – |
| Cc1ccc(N(Cc2ccc(C(=O)NC3CCCCC3)cc2)S(C)(=O)=O)cc1C [compound 14722514] | 3.6 ± 1.6 µM | – | no activity detected | – | no activity detected | ~150 µM | 214 | essentially identical to the original substances stored in the library | – |
| O=C(CSc1nc2ccccc2n1-c1ccccc1)Nc1ncc(Cl)cc1Cl [compound 22407466] | – | 0.9 ± 0.1 µM | – | – | – | > 150 µM | >71 | – | 1 ± 0.1 µM |
| CCN(CC)C(=O)N1c2ccccc2C=Cc2ccccc21 [compound 14740150] | – | 1.9 ± 0.1 µM | – | – | – | > 150 µM | >34 | – | 3 ± 0.1 µM |
| CCOC(=O)Cn1c(-c2nonc2NC(=O)c2ccccc2F)nc2ccccc21 [compound 7973070] | 2 ± 0.2 µM | 1 ± 0.1 µM | – | – | – | ~150 µM | 375 | – | 1.9 ± 0.1 µM |
| CC(=O)/C(C#N)=C1\NC(=O)C(Cc2ccc(C)c(C)c2)S1 (centres unmarked) [compound 14741996] | 7.7 ± 0.1 µM | 4.2 ± 0.1 µM | – | – | – | > 150 µM | >47 | – | 3.9 ± 0.1 µM |
| CNC(=O)c1ccc(OCc2ccccc2)c(OC)c1 [compound 4265637] | 4.7 ± 0.3 µM | 6.7 ± 0.1 µM | no activity detected | no activity detected | – | > 150 µM | >50 | – | – |
| CC1Cc2cc(-c3csc(NC(=O)Cc4cccs4)n3)ccc2N1S(C)(=O)=O (centres unmarked) [compound 852230] | 4.5 ± 0.2 µM | – | no activity detected | no activity detected | no activity detected | ~150 µM | 46 | – | – |
| C#CCn1c(S(=O)(=O)Cc2ccc(F)cc2)nc(-c2ccccc2)c1-c1ccccc1 [compound 17409378] | 1.4 ± 0.3 µM | – | – | – | – | 26 µM | 37 | – | 1.7 ± 0.2 µM |
| CS(=O)(=O)N1CCc2cc(-c3csc(NC(=O)Cc4ccccc4)n3)ccc21 [compound 14723513] | 3.6 ± 0.2 µM | 26.8 ± 8.7 µM | no activity detected | no activity detected | – | > 150 µM | >41 | – | – |
| COc1ccc(-n2c(SC(C)C(=O)Nc3ncc(Cl)cc3Cl)nc3ccccc32)cc1 (centres unmarked) [compound 22407448] | 0.1 µM | – | – | – | – | > 150 µM | – | essentially identical to the original substances stored in the library | 0.2 ± 0.1 µM |
| CSc1ccccc1NC(=O)Cn1c(-c2cscn2)nc2ccccc21 [compound 4261934] | 3.9 ± 0.1 µM | – | no activity detected | – | no activity detected | > 150 µM | >63 | – | – |
| COc1cc(/C=C/C(=O)N2CCOCC2)ccc1OCc1ccccc1 [compound 22415419] | 2.2 ± 0.3 µM | 5 ± 0.2 µM | no activity detected | no activity detected | – | > 150 µM | >33 | – | – |
| C=CCN=c1scc(-c2ccccc2)n1/N=C/c1ccccn1 [compound 22406106] | – | – | – | – | – | 139 µM | 116 | – | – |
| COc1cccc(CNC(=O)c2cc3oc4ccccc4c3n2C)c1OC [compound 4242806] | 2.1 ± 0.1 µM | 2.1 ± 0.1 µM | – | – | – | 147 µM | 105 | – | 2 ± 0.1 µM |
